Reference: ChEMBL document CHEMBL3885861, “Open TG-GATES”

Species: Rattus norvegicus
Experiment: Open TG-GATES - Regimen: Single
Assay type: toxicity, organism-based, Sprague-Dawley
Parameters: regimen Single, gender Male, age 6 weeks
Details: in vivo, iv, route intravenous injection; for TBIL / TC / TG / TP / gamma-GTP / A/G / ALP / ALT / AST / BUN / CRE / Ca / Cl / DBIL / GLC / IP / K / LDH / Na / PL / RALB: tissue Plasma; for APTT / Bas / Eos / Fbg / Hb / Ht / Lym / MCH / MCHC / MCV / Mono / Neu / PT / Plat / RBC / Ret / WBC: tissue Blood; for KIDNEY_L / KIDNEY_R / KIDNEY_TOTAL: tissue Kidney; for LIVER: tissue Liver
[1] = 0 mg/kg, 24 h, dose level Control

Structure (SMILES): C[C@@H]1C[C@@H]([C@H](O)CC2CC(=O)NC(=O)C2)C(=O)[C@@H](C)C1 [CYCLOHEXIMIDE]
- TBIL [1]: 0.018 mg/dL
- TC [1]: 75 mg/dL
- TG [1]: 83.2 mg/dL
- TP [1]: 5.6 g/dL
- gamma-GTP [1]: 1.8 IU/L
- TERMINAL_BW (1 mg/kg, 3 h, dose level Low): 216.3 g
- APTT (1 mg/kg, 3 h, dose level Low): 20.1 s
- Bas (1 mg/kg, 3 h, dose level Low): 0%
- Eos (1 mg/kg, 3 h, dose level Low): 0.6%
- Fbg (1 mg/kg, 3 h, dose level Low): 275.2 mg/dL
- Hb (1 mg/kg, 3 h, dose level Low): 13.1 g/dL
- Ht (1 mg/kg, 3 h, dose level Low): 38.5%
- Lym (1 mg/kg, 3 h, dose level Low): 73.2%
- MCH (1 mg/kg, 3 h, dose level Low): 21.7 pg
- MCHC (1 mg/kg, 3 h, dose level Low): 34%
- MCV (1 mg/kg, 3 h, dose level Low): 63.7 fL
- Mono (1 mg/kg, 3 h, dose level Low): 2.4%
- Neu (1 mg/kg, 3 h, dose level Low): 22.2%
- PT (1 mg/kg, 3 h, dose level Low): 17.6 s
- Plat (1 mg/kg, 3 h, dose level Low): 121.9 x10_4/uL
- RBC (1 mg/kg, 3 h, dose level Low): 605.6 x10_4/ul
- Ret (1 mg/kg, 3 h, dose level Low): 8.4%
- WBC (1 mg/kg, 3 h, dose level Low): 174.9 x10_2/uL
- KIDNEY_L (1 mg/kg, 3 h, dose level Low): 0.9 g
- KIDNEY_R (1 mg/kg, 3 h, dose level Low): 0.9 g
- KIDNEY_TOTAL (1 mg/kg, 3 h, dose level Low): 1.9 g
- LIVER (1 mg/kg, 3 h, dose level Low): 9 g
- A/G (1 mg/kg, 3 h, dose level Low): 1.4
- ALP (1 mg/kg, 3 h, dose level Low): 1054.4 IU/L
- ALT (1 mg/kg, 3 h, dose level Low): 46 IU/L
- AST (1 mg/kg, 3 h, dose level Low): 86 IU/L
- BUN (1 mg/kg, 3 h, dose level Low): 23.6 mg/dL
- CRE (1 mg/kg, 3 h, dose level Low): 0.1 mg/dL
- Ca (1 mg/kg, 3 h, dose level Low): 9.6 mg/dL
- Cl (1 mg/kg, 3 h, dose level Low): 107.4 meq/L
- DBIL (1 mg/kg, 3 h, dose level Low): 0.002 mg/dL
- GLC (1 mg/kg, 3 h, dose level Low): 145.6 mg/dL
- IP (1 mg/kg, 3 h, dose level Low): 9.1 mg/dL
- K (1 mg/kg, 3 h, dose level Low): 4.3 meq/L
- LDH (1 mg/kg, 3 h, dose level Low): 174 IU/L
- Na (1 mg/kg, 3 h, dose level Low): 142.2 meq/L
- PL (1 mg/kg, 3 h, dose level Low): 78.8 mg/dL
- RALB (1 mg/kg, 3 h, dose level Low): 2.8 g/dL
- TBIL (1 mg/kg, 3 h, dose level Low): 0.016 mg/dL
- TC (1 mg/kg, 3 h, dose level Low): 55.2 mg/dL
- TG (1 mg/kg, 3 h, dose level Low): 61.6 mg/dL
- TP (1 mg/kg, 3 h, dose level Low): 4.9 g/dL
- gamma-GTP (1 mg/kg, 3 h, dose level Low): 1.6 IU/L
- TERMINAL_BW (1 mg/kg, 6 h, dose level Low): 217.9 g
- APTT (1 mg/kg, 6 h, dose level Low): 25.1 s
- Bas (1 mg/kg, 6 h, dose level Low): 0%
- Eos (1 mg/kg, 6 h, dose level Low): 1%
- Fbg (1 mg/kg, 6 h, dose level Low): 276 mg/dL
- Hb (1 mg/kg, 6 h, dose level Low): 13.2 g/dL
- Ht (1 mg/kg, 6 h, dose level Low): 39.6%
- Lym (1 mg/kg, 6 h, dose level Low): 65.2%
- MCH (1 mg/kg, 6 h, dose level Low): 21.2 pg
- MCHC (1 mg/kg, 6 h, dose level Low): 33.4%
- MCV (1 mg/kg, 6 h, dose level Low): 63.4 fL
- Mono (1 mg/kg, 6 h, dose level Low): 2.8%
- Neu (1 mg/kg, 6 h, dose level Low): 30%
- PT (1 mg/kg, 6 h, dose level Low): 19.7 s
- Plat (1 mg/kg, 6 h, dose level Low): 107.5 x10_4/uL
- RBC (1 mg/kg, 6 h, dose level Low): 625.2 x10_4/ul
- Ret (1 mg/kg, 6 h, dose level Low): 7.7%
- WBC (1 mg/kg, 6 h, dose level Low): 190 x10_2/uL
- KIDNEY_L (1 mg/kg, 6 h, dose level Low): 0.9 g
- KIDNEY_R (1 mg/kg, 6 h, dose level Low): 1 g
- KIDNEY_TOTAL (1 mg/kg, 6 h, dose level Low): 1.9 g
- LIVER (1 mg/kg, 6 h, dose level Low): 8.6 g
- A/G (1 mg/kg, 6 h, dose level Low): 1.5
- ALP (1 mg/kg, 6 h, dose level Low): 1085.8 IU/L
- ALT (1 mg/kg, 6 h, dose level Low): 45 IU/L
- AST (1 mg/kg, 6 h, dose level Low): 82.6 IU/L
- BUN (1 mg/kg, 6 h, dose level Low): 18.2 mg/dL
- CRE (1 mg/kg, 6 h, dose level Low): 0.1 mg/dL
- Ca (1 mg/kg, 6 h, dose level Low): 8.6 mg/dL
- Cl (1 mg/kg, 6 h, dose level Low): 105.4 meq/L
- DBIL (1 mg/kg, 6 h, dose level Low): 0.004 mg/dL
- GLC (1 mg/kg, 6 h, dose level Low): 146.2 mg/dL
- IP (1 mg/kg, 6 h, dose level Low): 9.4 mg/dL
- K (1 mg/kg, 6 h, dose level Low): 3.6 meq/L
- LDH (1 mg/kg, 6 h, dose level Low): 164.8 IU/L
- Na (1 mg/kg, 6 h, dose level Low): 140.8 meq/L
- PL (1 mg/kg, 6 h, dose level Low): 74 mg/dL
- RALB (1 mg/kg, 6 h, dose level Low): 3 g/dL
- TBIL (1 mg/kg, 6 h, dose level Low): 0.01 mg/dL
- TC (1 mg/kg, 6 h, dose level Low): 42.8 mg/dL
- TG (1 mg/kg, 6 h, dose level Low): 83.8 mg/dL
- TP (1 mg/kg, 6 h, dose level Low): 5 g/dL
- gamma-GTP (1 mg/kg, 6 h, dose level Low): 1.4 IU/L
- TERMINAL_BW (1 mg/kg, 9 h, dose level Low): 216 g
- APTT (1 mg/kg, 9 h, dose level Low): 26 s
- Bas (1 mg/kg, 9 h, dose level Low): 0%
- Eos (1 mg/kg, 9 h, dose level Low): 0%
- Fbg (1 mg/kg, 9 h, dose level Low): 276.6 mg/dL
- Hb (1 mg/kg, 9 h, dose level Low): 13.8 g/dL
- Ht (1 mg/kg, 9 h, dose level Low): 41.2%
- Lym (1 mg/kg, 9 h, dose level Low): 70.2%
- MCH (1 mg/kg, 9 h, dose level Low): 21.1 pg
- MCHC (1 mg/kg, 9 h, dose level Low): 33.4%
- MCV (1 mg/kg, 9 h, dose level Low): 63.1 fL
- Mono (1 mg/kg, 9 h, dose level Low): 1.8%
- Neu (1 mg/kg, 9 h, dose level Low): 26.8%
- PT (1 mg/kg, 9 h, dose level Low): 20.4 s
- Plat (1 mg/kg, 9 h, dose level Low): 122.9 x10_4/uL
- RBC (1 mg/kg, 9 h, dose level Low): 653.8 x10_4/ul
- Ret (1 mg/kg, 9 h, dose level Low): 7%
- WBC (1 mg/kg, 9 h, dose level Low): 187.2 x10_2/uL
- KIDNEY_L (1 mg/kg, 9 h, dose level Low): 0.9 g
- KIDNEY_R (1 mg/kg, 9 h, dose level Low): 0.9 g
- KIDNEY_TOTAL (1 mg/kg, 9 h, dose level Low): 1.9 g
- LIVER (1 mg/kg, 9 h, dose level Low): 8.9 g
- A/G (1 mg/kg, 9 h, dose level Low): 1.4
- ALP (1 mg/kg, 9 h, dose level Low): 1037.4 IU/L
- ALT (1 mg/kg, 9 h, dose level Low): 39.6 IU/L
- AST (1 mg/kg, 9 h, dose level Low): 78.2 IU/L
- BUN (1 mg/kg, 9 h, dose level Low): 16 mg/dL
- CRE (1 mg/kg, 9 h, dose level Low): 0.1 mg/dL
- Ca (1 mg/kg, 9 h, dose level Low): 9.5 mg/dL
- Cl (1 mg/kg, 9 h, dose level Low): 106.2 meq/L
- DBIL (1 mg/kg, 9 h, dose level Low): 0.008 mg/dL
- GLC (1 mg/kg, 9 h, dose level Low): 162.6 mg/dL
- IP (1 mg/kg, 9 h, dose level Low): 8.9 mg/dL
- K (1 mg/kg, 9 h, dose level Low): 3.9 meq/L
- LDH (1 mg/kg, 9 h, dose level Low): 205 IU/L
- Na (1 mg/kg, 9 h, dose level Low): 140.4 meq/L
- PL (1 mg/kg, 9 h, dose level Low): 90 mg/dL
- RALB (1 mg/kg, 9 h, dose level Low): 2.8 g/dL
- TBIL (1 mg/kg, 9 h, dose level Low): 0.022 mg/dL
- TC (1 mg/kg, 9 h, dose level Low): 56.2 mg/dL
- TG (1 mg/kg, 9 h, dose level Low): 38.4 mg/dL
- TP (1 mg/kg, 9 h, dose level Low): 4.8 g/dL
- gamma-GTP (1 mg/kg, 9 h, dose level Low): 1 IU/L
- TERMINAL_BW (1 mg/kg, 24 h, dose level Low): 227.7 g
- APTT (1 mg/kg, 24 h, dose level Low): 23.9 s
- Bas (1 mg/kg, 24 h, dose level Low): 0%
- Eos (1 mg/kg, 24 h, dose level Low): 0.2%
- Fbg (1 mg/kg, 24 h, dose level Low): 334.6 mg/dL
- Hb (1 mg/kg, 24 h, dose level Low): 13.2 g/dL
- Ht (1 mg/kg, 24 h, dose level Low): 39.8%
- Lym (1 mg/kg, 24 h, dose level Low): 85.4%
- MCH (1 mg/kg, 24 h, dose level Low): 20.5 pg
- MCHC (1 mg/kg, 24 h, dose level Low): 33.1%
- MCV (1 mg/kg, 24 h, dose level Low): 61.8 fL
- Mono (1 mg/kg, 24 h, dose level Low): 2%
- Neu (1 mg/kg, 24 h, dose level Low): 10.6%
- PT (1 mg/kg, 24 h, dose level Low): 16.8 s
- Plat (1 mg/kg, 24 h, dose level Low): 115.4 x10_4/uL
- RBC (1 mg/kg, 24 h, dose level Low): 643.4 x10_4/ul
- Ret (1 mg/kg, 24 h, dose level Low): 6%
- WBC (1 mg/kg, 24 h, dose level Low): 148.3 x10_2/uL
- KIDNEY_L (1 mg/kg, 24 h, dose level Low): 1 g
- KIDNEY_R (1 mg/kg, 24 h, dose level Low): 1 g
- KIDNEY_TOTAL (1 mg/kg, 24 h, dose level Low): 2 g
- LIVER (1 mg/kg, 24 h, dose level Low): 10.9 g
- A/G (1 mg/kg, 24 h, dose level Low): 1.3
- ALP (1 mg/kg, 24 h, dose level Low): 1100.2 IU/L
- ALT (1 mg/kg, 24 h, dose level Low): 31.2 IU/L
- AST (1 mg/kg, 24 h, dose level Low): 53.4 IU/L
- BUN (1 mg/kg, 24 h, dose level Low): 12.2 mg/dL
- CRE (1 mg/kg, 24 h, dose level Low): 0.2 mg/dL
- Ca (1 mg/kg, 24 h, dose level Low): 10.2 mg/dL
- Cl (1 mg/kg, 24 h, dose level Low): 107.6 meq/L
- DBIL (1 mg/kg, 24 h, dose level Low): 0.006 mg/dL
- GLC (1 mg/kg, 24 h, dose level Low): 197.2 mg/dL
- IP (1 mg/kg, 24 h, dose level Low): 6.6 mg/dL
